The source of these data is ChEMBL document CHEMBL1148931, “New sesterterpenes from the sponge Smenospongia sp” (2004).

In brackets after ≈: the same amount, converted by molar mass.

For the assay, the system named is K562. As to the kind of experiment: Cytotoxicity against human K562 cells. As to conditions: read-out: LC50 (the source's name). The format is functional.
Consider `CC(=O)OC[C@]12CCCC(C)(C)[C@@H]1CC[C@@]1(C)[C@@H]3CC=C4C(=O)O[C@@H](OC(C)=O)[C@@H]4[C@@]3(C)CC[C@@H]12`, for which the CC50 amounted to 11.2 µg/mL (≈ 23 µM).

With `CC(=O)O[C@@H]1OC=C2[C@@H](OC(C)=O)C[C@@H]3[C@](C)(CC[C@H]4[C@@]3(C)CC[C@H]3C(C)(C)CCC[C@@]34CO)[C@H]21`, the CC50 came out at 0.02 µg/mL (≈ 0.0409 µM).

`CC(=O)OC[C@]12CCCC(C)(C)[C@@H]1CC[C@@]1(C)[C@@H]3CC=C4C(=O)O[C@@H](O)[C@@H]4[C@@]3(C)CC[C@@H]12`: the CC50 was determined as 4.9 µg/mL (≈ 11 µM).

As to `CC(=O)O[C@@H](C/C=C(\C)CC/C=C(\C)CC/C=C(\C)CC(=O)CC(C)C)c1ccoc1`, the CC50 came out at 31.6 µg/mL (≈ 73.7 µM).

Regarding `C/C(=C\CC/C(C)=C/C[C@H](O)c1ccoc1)CC/C=C(\C)CC(=O)CC(C)C`, the CC50 is 3 µg/mL (≈ 7.76 µM).
